Laboratory results reported in patent US20250255847A1, “[…]s: Novel Drugs for Triple Negative Breast Cancer” (SIMMARON RSEARCH INC, priority 2024, published 2025).
pEC50: −log10 of the molar value.

How the values were obtained:
MDA-MB-468 TNBC cells = experiment: LDH release cytotoxicity assay in MDA-MB-468 cells; type: cell-based, human; details: 48 hrs; for pEC50: Homo sapiens, MDA-MB-468, LDH release, read-out: CT50 (half-response of cytotoxicity)
Protocol: FIG. 11 illustrates an embodiment of the present invention and illustrates SIM-1 and SIM-2 induced apoptosis in MDA-MB-468 TNBC cells, but not HMEC control cells. MDA-MB-468 cells were treated with increasing doses of (A) SIM-1 and (B) SIM-2 for 48 hrs followed by lactate dehydrogenase (LDH) release assay in the supernatants. The result was offset with cell-bound LDH and presented as a percent of DMSO control as discussed under method section. Half-maximal cytotoxicity or CT50 analyses were performed plotting maximum response as an index of increasing doses of (C) SIM-1 and (D) SIM-2. AnnexinV (green) and propidium iodide (red) dual-labeling were performed to evaluate apoptotic response in MDA-MB-468 cells once treated with increasing doses of (E) SIM-1 and (F) SIM-2 for 24 hrs. Nuclei were stained with DAPI. TUNEL assay was performed in MDA-MB-468 cells after treatment with 25 nM of (G) SIM-1. Brown-colored TUNEL bodies were visualized at cresyl violet-stained blue nuclei. (H) The number of TUNEL bodies were counted as a percent of 100 cresyl violet-stained blue cells. Ten independent images were counted for the quantification study. Similarly, SIM-2 was assessed for (I) TUNEL and (J) subsequent quantification analyses. One-way ANOVA was performed to test the significance of mean between groups at **p<0.01 and ****p<0.0001. (K) LDH release assay was performed in non-tumor origin human mammary epithelial cells (HMEC) once treated with increasing doses of SIM-1 and SIM-2 for 48 hrs. Ns=no significance. (L) Annexin V (green) and propidium iodide (red) staining was performed in 25 nM SIM-1- and SIM-2-treated HMEC cells. Nuclei were stained with DAPI. Results are confirmed after three different experiments.
LDH Assay. LDH Assay was performed as per manufacturer's instructions (Cat #: 2570393; Vendor: Thermo Fisher Scientific). MDA-MB-468 and HMEC cells were treated with SIMPYRA-1 and SIMPYRA-2 at doses of 2 nM, 5 nM, […] 25 nM. Each dose was measured in triplicates. After 48 hours of incubation at 37° C., 50 μL of soup from each well was harvested and transferred into a new 96 well plate. Each well was treated with 50 μL of reaction mix (Substrate Mixture+deionized water+Assay Buffer). The reaction was stopped with 50 μL of Stop Solution. The plate was read at 490 nm (background at 680 nm).
This example provides a representative experiment that studies if SIM-1 and SIM-2 promoted the death of TNBC cells. The following experiments were adopted to confirm the apoptosis of TNBC cells. […] During apoptosis, phosphatidyl serine of the plasma membrane flips from the inner to the outer membrane which can be detected by Annexin V labeling, whereas PI stains the nucleus of a cell with compromised integrity of the plasma membrane. […]

[1] = test system: cell cycle genes in TNBC tumors; experiment: Real-time PCR of cell cycle genes in PDX tumors; type: in vivo, mouse; details: tumor tissue
Protocol: FIG. 13 illustrates an embodiment of the present invention and illustrates the effects of SIM-1 and SIM-2 on the growth arrest of TNBC tumors. […] The higher magnification images were given below. (B) Area of 50 randomly selected cells (10 different images from n=5 mice/group) from three different groups were measured using polygon tool of ImageJ software and then the scatter histogram analysis was performed using GraphPad Prism 10 statistical software package. The significance of mean between groups (***p<0.001 versus control) was calculated by one-way ANOVA analysis (effector: treatment). (C) IHC staining of cell growth marker Ki-67 in vehicle-, SIM-1-, and SIM-2-treated tumors represents the cell growth property of tumor cells. […] Both hematoxylin-ir nuclei (total cells) and Ki-67-ir cells were counted in n=15 images per group, converted in percent scale, and then plotted as scatter histogram. ****p<0.0001 vs. control as derived by one-way ANOVA. (E) IHC staining of cell proliferation marker PCNA in three different groups. (F) Scatter histogram analysis of […] counted from n=15 images per group and then plotted as percent scale. […] (G) A gene array of 84 genes in a validated human breast cancer gene array (RT^2 Profiler™ PCR array; Cat #PAHS-131ZA; Qiagen) was conducted in cDNA samples extracted from TNBC tumors of vehicle, SIM-1- and SIM-2-treated (n=3) groups. The resultant gene expressions were converted in log scale and then compared with the vehicle in (G) SIM-1 and (H) SIM-2 treated groups as shown in scatter plots. […] (I) Validation of gene expressions of CCND1, CCND2, CCNE1, CDK2 genes were performed by real-time PCR analysis. (J) Upregulations of CDKN1A, and CDKN2A in SIM-1- and SIM-2-treated groups were validated by real-time PCR analyses. were Significance of mean calculated by one-way ANOVA resulted […] versus respective vehicle-groups. The results are confirmed after three different experiments.
To assess the histopathological changes in tumor parenchyma, H&E staining of tumor tissue was performed in three different groups (FIG. 13A). The hematoxylin-stained cells appeared with enlarged and densely colored nuclei characteristic of growing and mitotic tumor cells. […] The result was further corroborated with the quantitative analyses of cell size (FIG. 13B). […] To further confirm, we performed a gene array with a validated RNA array kit (Qiagen) of genes that are involved in the growth and proliferation of breast cancer cells. Relative expressions of different genes were summarized by heatmap clusterogram analyses (FIG. 14D).

| SMILES | concentration of maximum cell death (LDH release) (MDA-MB-468 TNBC cells) | pEC50 (MDA-MB-468 TNBC cells) | expression of CCND1, CCND2, CCNE1 and CDK2 (real-time PCR) [1] | expression of CDKN1A and CDKN2A (real-time PCR) [1] |
| --- | --- | --- | --- | --- |
| O=C(O)CCC(=O)NCc1csc2ccc(Cl)cc12 [SIM-1, 4-[(5-chloro-1-benzothiophen-3-yl)methylamino]-4-oxobutanoic acid] | 20 nM | 7.68 | strongly suppressed | significantly induced |
| CCOC(=O)c1c(NC(C)=O)sc2c(Cl)c(/C=N/O)ccc12 [SIM-2, ethyl 2-acetamido-7-chloro-6-(hydroxyiminomethyl)-1-benzothiophene-3-carboxylate] | 20 nM | 7.74 | strongly suppressed | significantly induced |
